Among the data in PubChem BioAssay AID1259407 (Chemical Carcinogenesis Research Information System (CCRIS), 2018) are mutagenic call values, retold here.

SMILES strings stand for the structures. Calls of active or inactive are those of the source. How the calls were made is not given here.

The data set concerns CCRIS mutagenicity, Ames/micronucleus/aberration tests. Briefly: CCRIS mutagenicity studies.
Where [1] appears, read: Test System: AMES SALMONELLA TYPHIMURIUM, Strain/Indicator: TA98, Metabolic Activation: NONE, Method: STANDARD PLATE.
Setting [2] is: Test System: AMES SALMONELLA TYPHIMURIUM, Strain/Indicator: TA98, Metabolic Activation: RAT, LIVER, S-9, AROCLOR 1254, Method: STANDARD PLATE.
[3] abbreviates: Test System: AMES SALMONELLA TYPHIMURIUM, Strain/Indicator: TA100, Metabolic Activation: NONE, Method: STANDARD PLATE.
Where [4] appears, read: Test System: AMES SALMONELLA TYPHIMURIUM, Strain/Indicator: TA100, Metabolic Activation: RAT, LIVER, S-9, AROCLOR 1254, Method: STANDARD PLATE.
Setting [5] is: Test System: AMES SALMONELLA TYPHIMURIUM, Strain/Indicator: TA1535, Metabolic Activation: NONE, Method: STANDARD PLATE.
Where [6] appears, read: Test System: AMES SALMONELLA TYPHIMURIUM, Strain/Indicator: TA1535, Metabolic Activation: RAT, LIVER, S-9, AROCLOR 1254, Method: STANDARD PLATE.
[7] abbreviates: Test System: AMES SALMONELLA TYPHIMURIUM, Strain/Indicator: TA1537, Metabolic Activation: NONE, Method: STANDARD PLATE.
Setting [8] is: Test System: AMES SALMONELLA TYPHIMURIUM, Strain/Indicator: TA1537, Metabolic Activation: RAT, LIVER, S-9, AROCLOR 1254, Method: STANDARD PLATE.
The mark [9] stands for this setting: Test System: AMES SALMONELLA TYPHIMURIUM, Strain/Indicator: TA1538, Metabolic Activation: NONE, Method: STANDARD PLATE.
The mark [10] stands for this setting: Test System: AMES SALMONELLA TYPHIMURIUM, Strain/Indicator: TA1538, Metabolic Activation: RAT, LIVER, S-9, AROCLOR 1254, Method: STANDARD PLATE.

Take `C=CC(=O)OCCCCCOC(=O)C=C`: the mutagenic call is, setting by setting: under setting [1], “inactive; negative”; under setting [2], “inactive; negative”; (Test System: AMES SALMONELLA TYPHIMURIUM, Strain/Indicator: TA98, Metabolic Activation: RAT, LIVER, S-9, SODIUM PHENOBARBITAL, Method: STANDARD PLATE) “inactive; negative”; under setting [3], “inactive; negative”; under setting [4], “inactive; negative”; (Test System: AMES SALMONELLA TYPHIMURIUM, Strain/Indicator: TA100, Metabolic Activation: RAT, LIVER, S-9, SODIUM PHENOBARBITAL, Method: STANDARD PLATE) “inactive; negative”. Moreover, the mutagenic call is “inactive; negative” under setting [5]; “inactive; negative” under setting [6]; “inactive; negative” (Test System: AMES SALMONELLA TYPHIMURIUM, Strain/Indicator: TA1535, Metabolic Activation: RAT, LIVER, S-9, SODIUM PHENOBARBITAL, Method: STANDARD PLATE); “inactive; negative” under setting [7]; “inactive; negative” under setting [8]; “inactive; negative” (Test System: AMES SALMONELLA TYPHIMURIUM, Strain/Indicator: TA1537, Metabolic Activation: RAT, LIVER, S-9, SODIUM PHENOBARBITAL, Method: STANDARD PLATE). The mutagenic call reads like this: under setting [9], “inactive; negative”; under setting [10], “inactive; negative”; (Test System: AMES SALMONELLA TYPHIMURIUM, Strain/Indicator: TA1538, Metabolic Activation: RAT, LIVER, S-9, SODIUM PHENOBARBITAL, Method: STANDARD PLATE) “inactive; negative”.

Turning to `C[C@]12C=CC3=C4CCC(=O)C=C4CC[C@H]3[C@@H]1CC[C@H]2O`, the mutagenic call by setting is: under setting [1], “inactive; negative”; under setting [2], “inactive; negative”; under setting [3], “inactive; negative”; under setting [4], “inactive; negative”; under setting [5], “inactive; negative”; under setting [6], “inactive; negative”. The mutagenic call under setting [7] is “inactive; negative”; the mutagenic call under setting [8] is “inactive; negative”; the mutagenic call under setting [9] is “inactive; negative”; the mutagenic call under setting [10] was “inactive; negative”; the mutagenic call (Test System: CHO/HGPRT, Strain/Indicator: CHO-K1-BH4, Metabolic Activation: NONE, Method: STANDARD PLATE) is “inactive; negative”; the mutagenic call (Test System: CHO/HGPRT, Strain/Indicator: CHO-K1-BH4, Metabolic Activation: RAT, LIVER, S-9, AROCLOR 1254, Method: STANDARD PLATE) was “inactive; negative”.

Regarding `ClCC(Br)CCl`, the mutagenic call (Test System: AMES SALMONELLA TYPHIMURIUM, Strain/Indicator: TA100, Metabolic Activation: RAT, LIVER, MICROSOMES, PHENOBARBITAL, NADPH COFACTORS, Method: STANDARD PLATE) was “active; positive” and the mutagenic call (Test System: AMES SALMONELLA TYPHIMURIUM, Strain/Indicator: TA100, Metabolic Activation: RAT, LIVER, MICROSOMES, PHENOBARBITAL, Method: STANDARD PLATE) is “inactive; negative”.

In the case of `COc1cccc2c1C(=O)c1c(O)c3c(c(O)c1C2=O)C[C@@](O)(C(=O)CO)C[C@@H]3O[C@H]1C[C@H](N)C[C@H](C)O1`, the mutagenic call is “active; positive” (Test System: AMES SALMONELLA TYPHIMURIUM, Strain/Indicator: GW257, Metabolic Activation: NONE, Method: STANDARD PLATE); “active; positive” under setting [1]; “active; positive” under setting [3]; “active; positive” under setting [9]; “active; positive” (Test System: CHINESE HAMSTER V-79, Strain/Indicator: V-79/6-THIOGUANINE, Metabolic Activation: NONE, Method: SUSPENSION/PLATE); “inactive; negative” (Test System: CHINESE HAMSTER V-79, Strain/Indicator: V-79/6-THIOGUANINE, Metabolic Activation: RAT, LIVER, HOMOGENATE, Method: SUSPENSION/PLATE).
